Common to all, as to type: cell-based
One test relates to androgen receptor (AR). In words: AR-mediated luciferase reporter assay in MDA-kb2 cells (200 pM DHT). The protocol:
FIGS. 19A-19B depict identification of novel FKBP52-specific hit compounds in accordance with an illustrative embodiment. Structure-based drug design methodology and in silico library screening was used to identify 107 molecules targeting the FKBP52 PPIase pocket. Molecules were assessed for the ability to inhibit AR-mediated luciferase expression at a single high concentration (25 μM) in MDA-kb2 cells. […] MDA-kb2 cells were treated with 200 pM DHT with a range of derivative concentrations. Molecules in the low μM range will be tested in GR-, PR- and ER-Mediated luciferase assays in order to assess GR-dependent activity, PR-dependent activity and to test the effects of ER-regulated activity. A detailed evaluation of all candidate molecules will be tested in multiple cellular and animal models of prostate cancer.
FIGS. 20A-20D depict PC257 (ZINC3424402) which inhibits FKBP52-Specific AR, GR and ER-Mediated Activity in accordance with an illustrative embodiment. […]
(§1) Referring to FIG. 21, hormone-induced, receptor-dependent luciferase reporter gene expression was assessed in the presence of a range of PC257 concentrations for androgen receptor (AR) and glucocorticoid receptor (GR) in MDAkb2 cells, and for progesterone receptor (PR) and estrogen receptor (ER) in T47D cells. […]

Test [1] deals with glucocorticoid receptor (GR). In words: GR-dependent luciferase reporter assay in MDA-kb2 cells (50 nM DEX). The following applies: MDAkb2 cells, result in words. The protocol: (§2) FIGS. 20A-20D depict PC257 (ZINC3424402) which inhibits FKBP52-Specific AR, GR and ER-Mediated Activity in accordance with an illustrative embodiment. (FIG. 20A) An in silico screen lead to 107 lead molecules for functional screening that lead to an initial hit molecule PC257 (ZINC3424402). (FIG. 20B) MDA-kb2 cells expressing a stably AR- and GR-response luciferase reporter was treated with 200 pM DHT with a range of PC257 (ZINC3424402) concentrations (0, 0.01, 0.1, 1, 10, 25, 50, and 100 uM) for 16-18 hours in order to test for AR-dependent activity. The graphs represent an average of 4 independent receptor mediated luciferase receptor experiments. (FIG. 20C) MDA-kb2 cells expressing a stably AR- and GR-responsive luciferase reporter was treated with 50 nM DEX with a range of PC257 (ZINC3424402) concentrations (0, 0.01, 0.1, 1, 10, 25, 50, and 100 uM) for 16-18 hours in order to test for GR-dependent activity. The graphs represent an average of 4 independent receptor mediated luciferase receptor experiments. […]
as §1

In test [2] the test system is progesterone receptor (PR). Nature of the test: PR-dependent luciferase reporter assay in T47D cells. The following applies: result in words. On the procedure: Referring to FIG. 21, hormone-induced, receptor-dependent luciferase reporter gene expression was assessed in the presence of a range of PC257 concentrations for androgen receptor (AR) and glucocorticoid receptor (GR) in MDAkb2 cells, and for progesterone receptor (PR) and estrogen receptor (ER) in T47D cells. The IC50 values for AR, GR and PR inhibition are shown.

A further test has as its system estrogen receptor (ER). In words: ER-regulated luciferase reporter assay in T47D-KBluc cells (10 pM E2). Particulars: result in words. The protocol:
as §2, §1
In general terms: A reporter such as luciferase makes a cellular process visible.

Test [3] concerns FKBP52-regulated AR activity. Nature of the test: DHT-induced AR-dependent luciferase reporter with or without exogenous FKBP52 in fkbp52-deficient cells. Particulars: presence or absence of exogenous FKBP52; fkbp52-deficient 22Rv1, HeLa and mouse embryonic fibroblast cells. On the procedure:
Referring to FIG. 22, dihydrotestosterone (DHT)-induced, androgen receptor-dependent luciferase reporter gene expression was assessed in the presence of a range of PC257 concentrations in the presence or absence of exogenous FKBP52 expression in fkbp52-deficient 22Rv1, HeLa, and mouse embryonic fibroblast cells. The IC50 values are indicated. […] PC257 is anticipated to target the PPIase pocket, a highly conserved enzymatic pocket among the FKBP family of proteins.

Test [4] relates to endogenous AR-dependent gene expression. Nature of the test: Hormone-dependent FKBP51 and/or PSA protein levels by Western blot and densitometry. Particulars: range of PC257 concentrations, normalized to GAPDH. The protocol:
Referring to FIG. 23, hormone-dependent FKBP51 and/or PSA protein levels were assessed by Western blot and densitometry in the indicated cell lines in the presence of a range of PC257 concentrations. GAPDH was used as a loading control and the densitometry data were normalized to GAPDH.
(In western blotting, separated proteins are transferred to a membrane and probed.)

The next test concerns AR nuclear translocation. Nature of the test: AR nuclear translocation by fluorescence microscopy in 22Rv1 cells. The following applies: 22Rv1 prostate cancer cells, 75 μM, in the presence of hormone. On the procedure: FIG. 24 depicts that PC257 Blocks Androgen-Dependent AR Nuclear Translocation in accordance with an illustrative embodiment.
Referring to FIG. 24, 22Rv1 prostate cancer cells were treated with or without 75 μM in the presence of hormone and AR and FKBP52 cellular localization was assessed by fluorescence microscopy.

The structures appear in SMILES notation. Entries after “also recorded” stand apart in the source; their conditions may differ.

The term IC50 denotes the concentration needed to halve the response being measured. Regarding `Cc1cc(C(=O)COC(=O)Cc2n[nH]c(=O)c3ccccc23)c(C)n1C[C@H]1COc2ccccc2O1` [PC257, [2-[1-[[(3S)-2,3-Dihydro-1,4-benzodioxin-3-yl]methyl]-2,5-dimethylpyrrol-3-yl]-2-oxoethyl] 2-(4-oxo-3H-phthalazin-1-yl)acetate], the IC50 in the test on androgen receptor (AR) (MDA-kb2 cell reporter assay, 200 pM DHT, full dose response, read-out: IC50, inhibition of AR activity) amounted to 2 µM. In addition, the “inhibition of AR activity” value in the test with androgen receptor (AR) (MDA-kb2 cells, luciferase reporter, result in words) was “inhibition of AR activity in the low micromolar range; also recorded: specifically abrogates”. The “inhibition of GR activity” value in test [1] was “specifically abrogates”. Besides, in test [2], the “inhibition of PR activity” value is “specifically abrogates”. The “inhibitory activity on ER” value in the test with estrogen receptor (ER) was “no inhibitory activity”. For the same compound, the “preference for FKBP52-regulated AR activity” value in test [3] was “preferentially targets FKBP52-regulated AR activity with increased potency”. Moreover, the “endogenous AR-dependent gene expression (FKBP51/PSA protein)” value in test [4] was “abrogates endogenous AR-dependent gene expression”. Further, the AR nuclear translocation result in the test with AR nuclear translocation is “significantly inhibits AR nuclear translocation”.

The record behind these values is patent US11878961B2, “Next generation FKBP52 targeting drugs for the treatment of prostate and breast cancer” (Board of Regents, The University of Texas System, priority 2020, dated 2024).
